Data taken from patent publication US8557763B2, “Synthetic peptides that enhance tight junction permeability” (Alba Therapeutics Corporation, priority 2007, dated 2013).
Where no end group is shown, it is not given here. [ ]: non-standard residue; d: D form. AllylGly = C=CC[C@H](N)C(=O)O

Key:
CaCo2 monolayers [1] = assay: Trans Epithelial Electric Resistance (TEER) across CaCo2 monolayers; type: cell-based; design: key to Reduced TEER: + indicates an enhancement of the permeability of the tight junctions were observed; − indicates no enhancement of permeability was observed; conditions: CaCo2 monolayers
Text: (§1) Agonists of tight junctions can be identified by their ability to enhance the flux of compounds (e.g. ions, Lucifer Yellow) through a cell monolayer that comprises tight junctions; or by their ability to reduce TEER across a cell monolayer that comprises tight junctions. Treatment of CaCo2 monolayers with peptide FCIGRL (SEQ ID NO: 1) led to a 51-fold enhancement of Lucifer Yellow permeability through CaCo2 monolayers compared to vehicle alone.
Treatment of CaCo2 monolayers with peptide FCIGRL led to a 16-fold decrease in TEER across CaCo2 monolayers compared to vehicle alone.
(§2) Tight junction agonists can be identified and tested using the following method:
(§3) Determination of TEER and Lucifer Yellow Flux
(§4) Prepare Modified Hank's Balanced Salt Solution (MHBSS) by obtaining 1 L bottle of HBSS removing 10 ml of HBSS and replacing it with 10 ml HEPES buffer pH 7.0. Adjust pH to 7.4±0.1 using concentrated NaOH (10N).
(§5) Remove CaCo-2 cells from incubator, grown on 12-well, 3.0 μM, polycarbonate Transwell® filters (Corning) and record passage#, date cells seeded and age in days.
(§6) Aspirate cell culture medium from both the apical (AP) and basolateral (BL) compartments, replacing with 0.5 ml and 1.5 ml of MHBSS, respectively. Incubate cells at 37° C. for 30 minutes.
Using the MilliCell®-ERS instrument (Millipore), measure and record the transepithelial electrical resistance (TEER) across each filter and record.
(§7) Aspirate solution from the apical compartment of each filter (n=3 per condition) and replace with 0.5 ml of control and test solutions containing Lucifer Yellow and test compound if appropriate.
(§8) Place all plates into incubator set at 37° C. (±0.2), 50 RPM (±5) for a total of 180 minutes.
At t=30, 60, 120 and 180 minutes, measure and record the transepithelial electrical resistance (TEER) across each filter using the MilliCell-ERS instrument.
(§9) Cells: CaCo-2 cells passage 40-60 grown on Transwell® plates for 21-28 days
(§10) Culture Medium: DMEM supplemented with 10% fetal bovine serum, 1% NEAA, 1% Penn/Strep
(§11) Buffers: Hank's Balanced Salt Solution (HBSS) without calcium and magnesium
(§12) Flasks: 100×20 mm Tissue culture dish Falcon.
(§13) Plates: 12 well polycarbonate Transwell® filters; 0.3 uM pore size

CaCo2 monolayers [2] = assay: Lucifer Yellow (LY) permeability assay through CaCo2 monolayers; type: cell-based; design: key to Enhanced LY permeability: + indicates an enhancement of the permeability of the tight junctions were observed; − indicates no enhancement of permeability was observed; conditions: CaCo2 monolayers, Lucifer Yellow flux
Text: as §1, §2, §3, §4, §5, §6, §7, §8
At t=60, 120 and 180 minutes remove […] from each basolateral compartment and place it in a 96-well plate for Lucifer Yellow analysis, replace with 100 μl of MHBSS.
Make a Lucifer Yellow standard curve with the following dilutions (7500 μM, 3750 μM, 750 μM, 375 μM, 37.5 μM, 7.5 μM, 3.75 μM, 0.75 μM) and pipette 100 μL of each into a 96-well plate except for the first three standards mentioned above which require a 1:10 dilutions prior to transferring to the 96-well plate.
Harvest the remaining start solutions and what is left in each apical compartment into 1.5 ml vials. Freeze at −20° C. for future analysis.
Analyze each 96-well plate in a Tecan Spectra Fluor Plus using Magellan at 485 and 535 nm.
as §9, §10, §11, §12, §13

For “46 (F[AllylGly]IDRL-NH2; N-terminus assumed; SMILES C=CC[C@H](NC(=O)[C@@H](N)Cc1ccccc1)C(=O)N[C@H](C(=O)N[C@@H](CC(=O)O)C(=O)N[C@@H](CCCNC(=N)N)C(=O)N[C@@H](CC(C)C)C(N)=O)[C@@H](C)CC) [compound 46]”, the “Reduced TEER” value (CaCo2 monolayers [1]) was “+” and the “Enhanced LY permeability” value (CaCo2 monolayers [2]) was “+”.
With “57 (F[AllylGly]IGEL-NH2; N-terminus assumed; SMILES C=CC[C@H](NC(=O)[C@@H](N)Cc1ccccc1)C(=O)N[C@H](C(=O)NCC(=O)N[C@@H](CCC(=O)O)C(=O)N[C@@H](CC(C)C)C(N)=O)[C@@H](C)CC) [compound 57]” the “Reduced TEER” value (CaCo2 monolayers [1]) was “−” and the “Enhanced LY permeability” value (CaCo2 monolayers [2]) was “−”.
With “1 (FCIGRL; Peptide tight junction agonist) [compound 1]” the “Reduced TEER” value (CaCo2 monolayers [1]) was “+” and the “Enhanced LY permeability” value (CaCo2 monolayers [2]) was “+”.
With “11 (V[AllylGly]IGRL-NH2; N-terminus assumed; SMILES C=CC[C@H](NC(=O)[C@@H](N)C(C)C)C(=O)N[C@H](C(=O)NCC(=O)N[C@@H](CCCNC(=N)N)C(=O)N[C@@H](CC(C)C)C(N)=O)[C@@H](C)CC) [compound 11]” the “Reduced TEER” value (CaCo2 monolayers [1]) was “−” and the “Enhanced LY permeability” value (CaCo2 monolayers [2]) was “−”.
“12 (Y[AllylGly]IGRL-NH2; N-terminus assumed; SMILES C=CC[C@H](NC(=O)[C@@H](N)Cc1ccc(O)cc1)C(=O)N[C@H](C(=O)NCC(=O)N[C@@H](CCCNC(=N)N)C(=O)N[C@@H](CC(C)C)C(N)=O)[C@@H](C)CC) [compound 12]” was tested, and the “Reduced TEER” value (CaCo2 monolayers [1]) was “−” and the “Enhanced LY permeability” value (CaCo2 monolayers [2]) was “−”.
With “29 (F[AllylGly]GGRL-NH2; N-terminus assumed; SMILES C=CC[C@H](NC(=O)[C@@H](N)Cc1ccccc1)C(=O)NCC(=O)NCC(=O)N[C@@H](CCCNC(=N)N)C(=O)N[C@@H](CC(C)C)C(N)=O) [compound 29]” the “Reduced TEER” value (CaCo2 monolayers [1]) was “+” and the “Enhanced LY permeability” value (CaCo2 monolayers [2]) was “+”.
With “39 (F[AllylGly]ITRL-NH2; N-terminus assumed; SMILES C=CC[C@H](NC(=O)[C@@H](N)Cc1ccccc1)C(=O)N[C@H](C(=O)N[C@H](C(=O)N[C@@H](CCCNC(=N)N)C(=O)N[C@@H](CC(C)C)C(N)=O)[C@@H](C)O)[C@@H](C)CC) [compound 39]” the “Reduced TEER” value (CaCo2 monolayers [1]) was “+” and the “Enhanced LY permeability” value (CaCo2 monolayers [2]) was “+”.
“45 (F[AllylGly]IHRL-NH2; N-terminus assumed; SMILES C=CC[C@H](NC(=O)[C@@H](N)Cc1ccccc1)C(=O)N[C@H](C(=O)N[C@@H](Cc1c[nH]cn1)C(=O)N[C@@H](CCCNC(=N)N)C(=O)N[C@@H](CC(C)C)C(N)=O)[C@@H](C)CC) [compound 45]” was tested, and the “Reduced TEER” value (CaCo2 monolayers [1]) was “+” and the “Enhanced LY permeability” value (CaCo2 monolayers [2]) was “+”.
For “31 (F[AllylGly]HGRL-NH2; N-terminus assumed; SMILES C=CC[C@H](NC(=O)[C@@H](N)Cc1ccccc1)C(=O)N[C@@H](Cc1c[nH]cn1)C(=O)NCC(=O)N[C@@H](CCCNC(=N)N)C(=O)N[C@@H](CC(C)C)C(N)=O) [compound 31]”, the “Reduced TEER” value (CaCo2 monolayers [1]) was “+” and the “Enhanced LY permeability” value (CaCo2 monolayers [2]) was “+”.
In the case of “62 (F[AllylGly]IGKL-NH2; N-terminus assumed; SMILES C=CC[C@H](NC(=O)[C@@H](N)Cc1ccccc1)C(=O)N[C@H](C(=O)NCC(=O)N[C@@H](CCCCN)C(=O)N[C@@H](CC(C)C)C(N)=O)[C@@H](C)CC) [compound 62]”, the “Reduced TEER” value (CaCo2 monolayers [1]) is reported as “+” and the “Enhanced LY permeability” value (CaCo2 monolayers [2]) is reported as “+”.
“55 (F[AllylGly]IGHL-NH2; N-terminus assumed; SMILES C=CC[C@H](NC(=O)[C@@H](N)Cc1ccccc1)C(=O)N[C@H](C(=O)NCC(=O)N[C@@H](Cc1c[nH]cn1)C(=O)N[C@@H](CC(C)C)C(N)=O)[C@@H](C)CC) [compound 55]” was tested, and the “Reduced TEER” value (CaCo2 monolayers [1]) was “−” and the “Enhanced LY permeability” value (CaCo2 monolayers [2]) was “−”.
In the case of “49 (F[AllylGly]IFRL-NH2; N-terminus assumed; SMILES C=CC[C@H](NC(=O)[C@@H](N)Cc1ccccc1)C(=O)N[C@H](C(=O)N[C@@H](Cc1ccccc1)C(=O)N[C@@H](CCCNC(=N)N)C(=O)N[C@@H](CC(C)C)C(N)=O)[C@@H](C)CC) [compound 49]”, the “Reduced TEER” value (CaCo2 monolayers [1]) is reported as “+” and the “Enhanced LY permeability” value (CaCo2 monolayers [2]) is reported as “+”.
With “90 (F[AllylGly]IGRV-NH2; N-terminus assumed; SMILES C=CC[C@H](NC(=O)[C@@H](N)Cc1ccccc1)C(=O)N[C@H](C(=O)NCC(=O)N[C@@H](CCCNC(=N)N)C(=O)N[C@H](C(N)=O)C(C)C)[C@@H](C)CC) [compound 90]” the “Reduced TEER” value (CaCo2 monolayers [1]) was “+” and the “Enhanced LY permeability” value (CaCo2 monolayers [2]) was “+”.
With “84 (F[AllylGly]IGRN-NH2; N-terminus assumed; SMILES C=CC[C@H](NC(=O)[C@@H](N)Cc1ccccc1)C(=O)N[C@H](C(=O)NCC(=O)N[C@@H](CCCNC(=N)N)C(=O)N[C@@H](CC(N)=O)C(N)=O)[C@@H](C)CC) [compound 84]” the “Reduced TEER” value (CaCo2 monolayers [1]) was “+” and the “Enhanced LY permeability” value (CaCo2 monolayers [2]) was “+”.
With “14 (D[AllylGly]IGRL-NH2; N-terminus assumed; SMILES C=CC[C@H](NC(=O)[C@@H](N)CC(=O)O)C(=O)N[C@H](C(=O)NCC(=O)N[C@@H](CCCNC(=N)N)C(=O)N[C@@H](CC(C)C)C(N)=O)[C@@H](C)CC) [compound 14]” the “Reduced TEER” value (CaCo2 monolayers [1]) was “−”.
In the case of “13 (G[AllylGly]IGRL; not fully specified; printed as Gly−AllylGly−Ile−Gly−Arg−Leu−NR2) [compound 13]”, the “Reduced TEER” value (CaCo2 monolayers [1]) is reported as “−” and the “Enhanced LY permeability” value (CaCo2 monolayers [2]) is reported as “−”.
“18 (H[AllylGly]IGRL-NH2; N-terminus assumed; SMILES C=CC[C@H](NC(=O)[C@@H](N)Cc1c[nH]cn1)C(=O)N[C@H](C(=O)NCC(=O)N[C@@H](CCCNC(=N)N)C(=O)N[C@@H](CC(C)C)C(N)=O)[C@@H](C)CC) [compound 18]” was tested, and the “Reduced TEER” value (CaCo2 monolayers [1]) was “−” and the “Enhanced LY permeability” value (CaCo2 monolayers [2]) was “−”.
With “69 (F[AllylGly]IGIL-NH2; N-terminus assumed; SMILES C=CC[C@H](NC(=O)[C@@H](N)Cc1ccccc1)C(=O)N[C@H](C(=O)NCC(=O)N[C@H](C(=O)N[C@@H](CC(C)C)C(N)=O)[C@@H](C)CC)[C@@H](C)CC) [compound 69]” the “Reduced TEER” value (CaCo2 monolayers [1]) was “−”.
For “9 (T[AllylGly]IGRL-NH2; N-terminus assumed; SMILES C=CC[C@H](NC(=O)[C@@H](N)[C@@H](C)O)C(=O)N[C@H](C(=O)NCC(=O)N[C@@H](CCCNC(=N)N)C(=O)N[C@@H](CC(C)C)C(N)=O)[C@@H](C)CC) [compound 9]”, the “Reduced TEER” value (CaCo2 monolayers [1]) was “−”.
“68 (F[AllylGly]IGTL-NH2; N-terminus assumed; SMILES C=CC[C@H](NC(=O)[C@@H](N)Cc1ccccc1)C(=O)N[C@H](C(=O)NCC(=O)N[C@H](C(=O)N[C@@H](CC(C)C)C(N)=O)[C@@H](C)O)[C@@H](C)CC) [compound 68]” was tested, and the “Reduced TEER” value (CaCo2 monolayers [1]) was “+”.
“81 (F[AllylGly]IGRT-NH2; N-terminus assumed; SMILES C=CC[C@H](NC(=O)[C@@H](N)Cc1ccccc1)C(=O)N[C@H](C(=O)NCC(=O)N[C@@H](CCCNC(=N)N)C(=O)N[C@H](C(N)=O)[C@@H](C)O)[C@@H](C)CC) [compound 81]” was tested, and the “Enhanced LY permeability” value (CaCo2 monolayers [2]) was “−”.
For “60 (F[AllylGly]IGAL-NH2; N-terminus assumed; SMILES C=CC[C@H](NC(=O)[C@@H](N)Cc1ccccc1)C(=O)N[C@H](C(=O)NCC(=O)N[C@@H](C)C(=O)N[C@@H](CC(C)C)C(N)=O)[C@@H](C)CC) [compound 60]”, the “Enhanced LY permeability” value (CaCo2 monolayers [2]) was “+”.
“70 (F[AllylGly]IGWL-NH2; N-terminus assumed; SMILES C=CC[C@H](NC(=O)[C@@H](N)Cc1ccccc1)C(=O)N[C@H](C(=O)NCC(=O)N[C@@H](Cc1c[nH]c2ccccc12)C(=O)N[C@@H](CC(C)C)C(N)=O)[C@@H](C)CC) [compound 70]” was tested, and the “Enhanced LY permeability” value (CaCo2 monolayers [2]) was “+”.
